Reference: article PMC8375242 (International Journal of Nanomedicine, 2021)
Like-named read-outs stand apart in the source and are kept apart here. One block for each compound: values may come before it.

What was measured:
CT-26 homograft tumors = assay: In vivo antitumor assay, CT-26 homograft; set-up: species or system BALB/c mice; conditions: days 6, 9, 12, 14, day 15, saline 1586
human lung cancer (A549) = assay: MTT cytotoxicity assay, A549; type: cell-based; conditions: read-out: IC50 A549 (48 h)
[1] = system: murine colon cancer (CT-26); assay: MTT cytotoxicity assay, CT-26; type: cell-based; conditions: read-out: IC50 CT-26 (48 h)
[2] = system: human normal liver cell line LO-2; assay: MTT cytotoxicity assay, normal cell LO-2; type: cell-based; conditions: for IC50: read-out: IC50 LO-2 (48 h)
[3] = system: cisplatin-resistant cell line A549R; assay: MTT cytotoxicity assay, A549R; type: cell-based, human; conditions: for RF (resistant factor): RF=IC50(A549R)/IC50(A549); for IC50: read-out: IC50 A549R (48 h)
[4] = system: human ovarian cancer (SKOV-3); assay: MTT cytotoxicity assay, SKOV-3; type: cell-based
rhCOX-2 = target: T1, rhCOX-2 (Homo sapiens, UniProt P35354); assay: biochemical; conditions: read-out: COX-2 inhibition
T1 sequence (P35354 18-604): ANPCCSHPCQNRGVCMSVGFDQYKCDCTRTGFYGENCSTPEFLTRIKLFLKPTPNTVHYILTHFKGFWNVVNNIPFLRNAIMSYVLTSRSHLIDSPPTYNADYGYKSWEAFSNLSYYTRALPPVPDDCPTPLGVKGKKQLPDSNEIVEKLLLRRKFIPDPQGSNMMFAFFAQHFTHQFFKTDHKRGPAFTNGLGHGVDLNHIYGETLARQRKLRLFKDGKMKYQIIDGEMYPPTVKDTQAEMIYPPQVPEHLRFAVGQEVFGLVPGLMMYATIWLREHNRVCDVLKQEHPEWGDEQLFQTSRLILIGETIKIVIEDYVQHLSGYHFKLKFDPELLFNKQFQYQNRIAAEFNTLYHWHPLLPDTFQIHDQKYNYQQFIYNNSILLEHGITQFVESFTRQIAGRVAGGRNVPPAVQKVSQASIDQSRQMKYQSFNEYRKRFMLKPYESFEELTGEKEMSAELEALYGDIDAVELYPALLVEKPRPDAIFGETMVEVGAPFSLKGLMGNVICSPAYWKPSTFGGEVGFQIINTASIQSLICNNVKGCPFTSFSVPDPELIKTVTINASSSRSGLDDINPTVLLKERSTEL

Toxicity in vivo = assay: Toxicity in vivo; set-up: species or system BALB/c mice; conditions: 4 mg Pt/kg (1-NPs, oxaliplatin i.v.; 1 i.p.)
iNOS = assay: Immunohistochemical detection of iNOS in tumor tissues; type: in vivo, BALB/c mice; conditions: 4 mg Pt/kg (1-NPs, oxaliplatin i.v.), immunohistochemistry
[5] = Serum AST, ALT, BUN and CRE detection; type: in vivo, BALB/c mice; conditions: 4 mg Pt/kg (1-NPs, oxaliplatin i.v.; 1 i.p.), vs saline
MMP-9 = assay: Immunohistochemical detection of MMP-9 in tumor tissues; type: in vivo, BALB/c mice; conditions: 4 mg Pt/kg (1-NPs, oxaliplatin i.v.; 1 i.p.), immunohistochemistry; saline 16.3±1.9
[6] = MTT, 48 h incubation, normal liver cell
[7] = read-out: IC50 SKOV-3 (48 h), 48 h incubation
[8] = read-out: IC50 SKOV-3 (72 h), 72 h incubation

Compound: N.N.[Cl][Pt][Cl] [cisplatin]
tumor volume (CT-26 homograft tumors; 2 mg Pt/kg (2-NPs, cisplatin i.v.; 2 i.p.)): 399 mm^3 | IC50 (human lung cancer (A549); MTT, 48 h incubation): 2.8 ± 0.6 µM | IC50 ([1]; MTT, 48 h incubation): 1.2 ± 0.3 µM | IC50 [2, 6]: 3.4 ± 1.2 µM | RF (resistant factor) [3]: 2.57 | RF (resistant factor) ([3]; listed as CDDP): 2.6 | IC50 ([3]; MTT, 48 h incubation): 7.1 ± 1.3 µM | IC50 [4, 7]: 1.9 ± 0.4 µM | IC50 [4, 8]: 1.2 ± 0.3 µM

inhibition at 40 µM (rhCOX-2): 74%
Compound: COc1ccc2cc([C@H](C)C(=O)O)ccc2c1 [naproxen]
IC50 (human lung cancer (A549); Homo sapiens, A549, 48 h): > 100 µM | IC50 ([1]; Mus musculus, CT26, 48 h): > 100 µM | IC50 ([2]; Homo sapiens, 48 h): > 100 µM | IC50 ([3]; Homo sapiens, 48 h): > 100 µM

Compound: O=C1[O][Pt]2([NH][C@@H]3CCCC[C@H]3[NH]2)[O]C1=O [oxaliplatin]
signs of toxicity during treatment (Toxicity in vivo): anorexia and dyskinesia | H&E histology of heart, liver, spleen, lung and kidney (Toxicity in vivo; vs saline): no appreciable histological differences | spleen weight index (Toxicity in vivo; vs saline): remarkable suppressions of spleen | expression of iNOS in tumor tissues (iNOS): significantly upregulates iNOS | tumor volume (CT-26 homograft tumors; 4 mg Pt/kg (1-NPs, oxaliplatin i.v.; 1 i.p.)): 477 mm^3 | IC50 (human lung cancer (A549); MTT, 48 h incubation): 6.7 ± 1.8 µM | ALT and AST levels in serum [5]: significant enhanced ALT and AST levels | IC50 ([1]; MTT, 48 h incubation): 4.1 ± 0.7 µM | SI (selectivity index) ([2]; SI = IC50(LO-2)/Average IC50): 1.0 | IC50 [2, 6]: 4.8 ± 0.7 µM | RF (resistant factor) [3]: 0.4 | IC50 ([3]; MTT, 48 h incubation): 2.4 ± 0.6 µM | expression of MMP-9, mean optical density (MMP-9): 6.5±0.5% | IC50 [4, 7]: 5.9 ± 1.3 µM | IC50 [4, 8]: 7.5 ± 1.8 µM
